Here are results for 1 substance from US20210393742A1, “LONG-ACTING INTERLEUKIN-15 RECEPTOR AGONIST IN COMBINATION WITH ANOTHER PHARMACOLOGICALLY ACTIVE AGENT” (Nektar Therapeutics, priority 2018, published 2021).

Assay [1] relates to HCT-116 colorectal carcinoma cells. Briefly: Tumor growth inhibition and delay in HCT-116 colorectal carcinoma xenograft model (Example 19). The assay is classed as in vivo, mice. The method, then:
Tumor growth inhibition was evaluated on day 19 after treatment initiation.
The tumor growth delay was evaluated by measuring tumor volume quadrupling time (TVQT) from baseline tumor volume on treatment initiation day.

Another assay deals with Daudi B cell lymphoma. Briefly: Survival in Daudi B cell lymphoma xenograft model, combination with rituximab (Example 1). The assay is classed as in vivo, mice. Conditions: after about 35 days; agonist 0.3 mg/kg, days 14 and 17. How it is done:
At day 0, SCID mice were intravenously injected with 1×10^7 Daudi cells. The mice were divided into four groups. On days 14 and 17 post-Daudi cell injection, the groups were treated by injection as follows: Group 1: isotype control antibody, Group 2: 40 mg/kg IP rituximab, Group 3: 0.3 mg/kg mono(methoxyPEG-N-butanamide)40 kD interleukin-15 (a long-acting IL-15 receptor agonist), Group 4: 40 mg/kg IP rituximab and 0.3 mg/kg SC mono(methoxyPEG-N-butanamide)40 kD interleukin-15 (combination).
The survival rate was determined by measuring the onset of hind limb paralysis as a surrogate parameter.

A further assay deals with NK cells. In words: NKG2A and NKG2D surface expression on bone marrow NK cells of Daudi lymphoma bearing mice (Example 4). Conditions: bone marrow day 24; Conjugate 1 0.3 mg/kg SC days 14 and 21; antibody 0.5 mg/kg IP day 14. In kind it is in vivo. How it is done:
Balb/c mice bearing Daudi B cell lymphoma tumors in the bone marrow (n=6/group) were intraperitoneally administered a single 0.5 mg/kg dose of the human CD38 protein targeting clinical antibody daratumumab (DARZALEX®, Janssen Biotech) or a nonspecific control antibody with a matching isotype on day 14 after Daudi cell intravenous inoculation. Additional groups were administered mono(methoxyPEG-N-butanamide)40 kD interleukin-15 (Conjugate 1) subcutaneously at a dose of 0.3 mg/kg as a single agent on days 14 and 21 after Daudi cell inoculation, or administered a combination treatment of Conjugate 1 administered subcutaneously at doses of 0.03 mg/kg or 0.3 mg/kg on days 14 and 21 after Daudi cell inoculation and daratumumab administered intraperitoneally at a dose of 0.5 mg/kg on day 14 after Daudi cell inoculation.
Three days following the second Conjugate 1 administration (day 24 after Daudi inoculation), bone marrow was collected and the NK cell fraction was measured by flow cytometry in total bone marrow. Expression of the cell surface activating receptor NKG2D and the inhibitory checkpoint receptor NKG2A are shown in FIGS. 7A and 7B, respectively.

The next assay deals with HCT-116 cells. Briefly: ADCC of cetuximab-coated HCT-116 cells by primed human NK cells (Example 20). In kind it is cell-based. Conditions: NK cells primed with 300 ng/mL overnight; cetuximab 30 ug/mL; E:T 10:1, 3 hours. The method, then: Human NK cells were magnetically sorted from normal donor PBMCs using negative selection. NK cells were seeded in a 96-well U-bottom plate at a density of 400,000 cells/well. NK cells were stimulated with mono(methoxyPEG-N-butanamide)40 kD interleukin-15 (Compound 1) (300 ng/mL) (+) or left unstimulated (−) in complete RPMI-1640 media supplemented with 10% fetal bovine serum (FBS) and 1% antibiotic/antimycotic overnight at 37° C. in 5% CO2.
The colonic human HCT-116 cells (ATCC #CCL-247) were cultured McCoy 5A media (ATCC+30-2007) supplemented with 10% fetal bovine serum (FBS) and 1% antibiotic/antimycotic at 37° C. in 5% CO2. HCT-116 cells were subcultured by incubating in 0.25% Trypsin-0.53 mM EDTA for 5 min at 37° C., washed in sterile PBS, resuspended in culture media, counted, and co-cultured with the NK cells using an effector:target (E:T) of 10:1. […] Following incubation, cells were washed in flow staining buffer, Fc-blocked for 15 min at 4° C., and surface-stained (EpCAM, CD45, CD56, CD3-fluorescently conjugated antibodies) for 20 min at 4° C. in the dark. The cells were washed in PBS and incubated in 7-aminoactinomycin (7-AAD) viability stain for 30 minutes at 4° C. before acquiring for flow cytometric analysis using a Fortessa (BD). The percentage of 7-AAD+CD45-EpCAM+ target cells from total cell population is the percentage for dead tumor cells.

For the next assay, the system named is KHYG-1 cells. Briefly: KHYG-1 cell proliferation, CellTiter-Glo 2.0 (Example 7). The assay is classed as cell-based, human. Conditions: 48 hours. The method, then: KHYG-1 cells were cultured in RPMI-1640 medium supplemented with 20% FBS, 2 mM L-glutamine, and 20 ng/mL IL-2 (Complete growth medium) in a humidified incubator at 37° C. and 5% CO2.
One day prior to treatment with test compounds, cells were seeded at a density of 500,000 viable cells/ml in Complete growth medium and incubated overnight under normal growth conditions. On the day of the assay, KHYG-1 cells were washed 3 times with DPBS, resuspended in assay medium (RPMI-1640 medium supplemented with 20% FBS, 2 mM L-glutamine), and incubated for 4-5 hours at 37° C., 5% CO2. Cells were adjusted to the appropriate density (8×10^5 cells/mL) in assay medium and 50,000 cells/well were aliquoted into wells of a 96-well plate (View-Plate 96, Perkin-Elmer).
Stimulation of KHYG-1 cells was initiated by the transfer of IL-15 or a long-acting IL-15 receptor agonist (mono(mPEG-butanamide)IL-15) to duplicate wells containing cells, followed by 48 hours incubation at 37° C., 5% CO2.
Cell growth in each well was measured by monitoring ATP levels using CellTiter-Glo 2.0, following the manufacturer's instructions. The effect of the long-acting IL-15 receptor agonist on KHYG-1 cell proliferation was compared to IL-15 following 48-hour treatment using CellTiter-Glo 2.0 with the results shown in FIG. 10B.
(ATP-based viability assays read luminescence as a measure of living cells.)

Take “mono(methoxyPEG-N-butanamide)40 kD interleukin-15 [Conjugate 1]”: the tumor growth inhibition in assay [1] (day 19 after treatment initiation, cetuximab 40 mg/kg IP x6, Compound 1 0.3 mg/kg IV x3) came out at 31%. The “tumor growth delay (TVQT)” value in assay [1] (tumor volume quadrupling time from baseline) was found to be 26%. Further, the survival in the assay on Daudi B cell lymphoma was determined as 0%. For the same substance, in the assay with NK cells, the “% NK cells expressing NKG2A (mean, n = 6)” value came to 73.70% and the “% NK cells expressing NKG2D (mean, n = 6)” value worked out at 2.157%. For the same substance, in the assay on HCT-116 cells, the “ADCC, % 7-AAD+CD45-EpCAM+ target cells” value was “enhance ADCC of cetuximab-coated human solid tumor cells”. The maximal proliferative response entry in the assay on KHYG-1 cells was “comparable to the response produced by IL-15”.
